Measured values taken from PubChem BioAssay AID268 (DTP/NCI, 2004).
“And” between values parts separate entries of the source, which are not always exact repeats. Equal entries are not always repeated.

Tested on: CD2F1 mice, P1798 lymphosarcoma sc, tumor weight T/C
Assay: NCI In Vivo Anticancer Drug Screen. Data for tumor model P1798 Lymphosarcoma (subcutaneous) in CD2F1 (CDF1) mice
Conditions: endpoint: mean tumor weight, higher = larger tumour
Experimental: The antitumor activity of compounds was measured in mice bearing transplantable tumors. Survival or tumor size were measured and the results are expressed as the measurement made in the treated group (T) divided by the measurement made in the vehicle treated control group (C). The tumor model used in this assay is P1798 Lymphosarcoma (subcutaneous) in CD2F1 (CDF1) mice

[1] = dose: 6.25 mg/kg/injection, schedule: Q01DX010 (sc), vehicle: steriod suspending solution
[2] = dose: 12.5 mg/kg/injection, schedule: Q01DX010 (sc), vehicle: steriod suspending solution
[3] = dose: 50.0 mg/kg/injection, schedule: Q01DX010 (sc), vehicle: steriod suspending solution
[4] = dose: 0.16 mg/kg/injection, schedule: Q01DX010 (ip), vehicle: saline
[5] = dose: 0.25 mg/kg/injection, schedule: Q01DX010 (ip), vehicle: saline
[6] = dose: 0.38 mg/kg/injection, schedule: Q01DX010 (ip), vehicle: saline
[7] = dose: 6.25 mg/kg/injection, schedule: Q01DX010 (ip), vehicle: saline
[8] = dose: 12.5 mg/kg/injection, schedule: Q01DX010 (ip), vehicle: saline
[9] = dose: 25.0 mg/kg/injection, schedule: Q01DX010 (ip), vehicle: saline
[10] = dose: 50.0 mg/kg/injection, schedule: Q01DX010 (ip), vehicle: saline
[11] = dose: 2.0 mg/kg/injection, schedule: Q01DX010 (ip), vehicle: saline
[12] = dose: 8.0 mg/kg/injection, schedule: Q01DX010 (ip), vehicle: saline
[13] = dose: 25.0 mg/kg/injection, schedule: Q01DX010 (sc), vehicle: steriod suspending solution
[14] = dose: 5.0 mg/kg/injection, schedule: Q01DX010 (ip), vehicle: saline
[15] = dose: 125.0 mg/kg/injection, schedule: Q01DX010 (sc), vehicle: steriod suspending solution
[16] = dose: 250.0 mg/kg/injection, schedule: Q01DX010 (sc), vehicle: steriod suspending solution
[17] = dose: 500.0 mg/kg/injection, schedule: Q01DX010 (sc), vehicle: steriod suspending solution

SMILES: CC1(C)O[C@@H]2C[C@H]3[C@@H]4CCC5=CC(=O)C=C[C@]5(C)[C@@]4(F)[C@@H](O)C[C@]3(C)[C@]2(C(=O)CO)O1
- T/C (dose: 0.5 mg/kg/injection, schedule: Q01DX005 (sc), vehicle: steriod suspending solution): 56 % of control
- T/C (dose: 1.0 mg/kg/injection, schedule: Q01DX005 (sc), vehicle: steriod suspending solution): 59 % of control
- T/C (dose: 1.0 mg/kg/injection, schedule: Q01DX010 (sc), vehicle: steriod suspending solution): 118 % of control
- T/C (dose: 1.0 mg/kg/injection, schedule: Q02DX010 (sc), vehicle: steriod suspending solution): 101 % of control
- T/C (dose: 1.0 mg/kg/injection, schedule: Q03DX004 (sc), vehicle: steriod suspending solution): 71 % of control
- T/C (dose: 2.0 mg/kg/injection, schedule: Q01DX005 (sc), vehicle: steriod suspending solution): 33 % of control
- T/C (dose: 2.0 mg/kg/injection, schedule: Q01DX010 (sc), vehicle: steriod suspending solution): 39 % of control
- T/C (dose: 2.0 mg/kg/injection, schedule: Q02DX010 (sc), vehicle: steriod suspending solution): 80 % of control
- T/C (dose: 2.0 mg/kg/injection, schedule: Q03DX004 (sc), vehicle: steriod suspending solution): 26 % of control
- T/C (dose: 3.75 mg/kg/injection, schedule: Q01DX010 (sc), vehicle: steriod suspending solution): 1 % of control
- T/C (dose: 4.0 mg/kg/injection, schedule: Q01DX005 (sc), vehicle: steriod suspending solution): 16 % of control
- T/C (dose: 4.0 mg/kg/injection, schedule: Q01DX010 (sc), vehicle: steriod suspending solution): 23 % of control
- T/C (dose: 4.0 mg/kg/injection, schedule: Q02DX010 (sc), vehicle: steriod suspending solution): 113 % of control
- T/C (dose: 4.0 mg/kg/injection, schedule: Q03DX004 (sc), vehicle: steriod suspending solution): 7 % of control

SMILES: C=CCOc1ccc2c(c1)CC[C@@H]1[C@@H]2CC[C@]2(C)[C@@H](O)[C@@H](O)C[C@@H]12
- T/C [1]: 98 % of control and 82 % of control
- T/C [2]: 77 % of control and 88 % of control

SMILES: C[C@]12CC[C@@H]3c4ccc(O)cc4CC[C@H]3[C@@H]1C[C@H](O)C2
- T/C [1]: 102 % of control
- T/C [2]: 95 % of control and 109 % of control
- T/C [3]: 111 % of control and 112 % of control

SMILES: CC(=O)OC(C)(C)/C=C/C(=O)[C@](C)(O)[C@H]1[C@H](O)C[C@@]2(C)[C@@H]3CC=C4[C@@H](C[C@H](O)C(=O)C4(C)C)[C@]3(CO)C(=O)C[C@]12C
- T/C [4]: 108 % of control
- T/C [5]: 110 % of control
- T/C [6]: 104 % of control

SMILES: CC(=O)OC(C)(C)/C=C/C(=O)[C@](C)(O)[C@H]1[C@H](O)C[C@@]2(C)[C@@H]3CC=C4[C@@H](CC[C@H](O)C4(C)C)[C@]3(CO)C(=O)C[C@]12C
- T/C [4]: 109 % of control
- T/C [5]: 89 % of control
- T/C [6]: 102 % of control
- T/C (dose: 0.57 mg/kg/injection, schedule: Q01DX010 (ip), vehicle: saline): 109 % of control

SMILES: NCCCC(N)C(=O)NCCCCCCCCCCNC(=O)C(N)CCCN (stereo not drawn)
- T/C [7]: 98 % of control
- T/C [8]: 86 % of control
- T/C [9]: 92 % of control
- T/C [10]: 65 % of control

SMILES: NC(Cc1c[nH]c2ccc(N(CCCl)CCCl)cc12)C(=O)O (stereo not drawn)
- T/C [5]: 106 % of control
- T/C (dose: 0.5 mg/kg/injection, schedule: Q01DX010 (ip), vehicle: saline): 97 % of control
- T/C (dose: 1.0 mg/kg/injection, schedule: Q01DX010 (ip), vehicle: saline): 40 % of control
- T/C [11]: 13 % of control

SMILES: OCC1OC(n2cnc3c(Cl)ncnc32)C(O)C1O (stereo not drawn)
- T/C (dose: 250.0 mg/kg/injection, schedule: Q01DX010 (ip), vehicle: saline): 95 % of control and 103 % of control

SMILES: CN(C)CCCN1c2ccccc2Sc2ccc(C(F)(F)F)cc21
- T/C [8]: 55 % of control
- T/C [9]: 19 % of control

SMILES: CC(CCC(C)OS(C)(=O)=O)OS(C)(=O)=O (stereo not drawn)
- T/C [11]: 101 % of control
- T/C (dose: 4.0 mg/kg/injection, schedule: Q01DX010 (ip), vehicle: saline): 59 % of control and 78 % of control
- T/C [12]: 101 % of control and 82 % of control

SMILES: CC(=O)[C@H]1CC[C@H]2[C@@H]3CCC4=CC(=O)[C@H](C)C[C@]4(C)[C@@]3(F)[C@@H](O)C[C@]12C
- T/C [13]: 15 % of control
- T/C [3]: 5 % of control
- T/C (dose: 100.0 mg/kg/injection, schedule: Q01DX010 (sc), vehicle: steriod suspending solution): 4 % of control
- T/C (dose: 200.0 mg/kg/injection, schedule: Q01DX010 (sc), vehicle: steriod suspending solution): 6 % of control
- T/C (dose: 400.0 mg/kg/injection, schedule: Q01DX010 (sc), vehicle: steriod suspending solution): 5 % of control

SMILES: O=c1ccc2ccccc2o1
- T/C (dose: 110.0 mg/kg/injection, schedule: Q01DX011 (ip), vehicle: carboxymethylcellulose (CMC)): 69 % of control
- T/C (dose: 165.0 mg/kg/injection, schedule: Q01DX011 (ip), vehicle: carboxymethylcellulose (CMC)): 54 % of control

SMILES: OC(CBr)C(O)C(O)C(O)CBr (stereo not drawn)
- T/C [9]: 62 % of control
- T/C [10]: 70 % of control and 84 % of control
- T/C (dose: 400.0 mg/kg/injection, schedule: Q01DX010 (ip), vehicle: saline): 98 % of control

SMILES: COC1C(OC(=O)/C=C/C=C/C=C/C=C/C(=O)O)CCC2(CO2)C1C1(C)OC1CC=C(C)C (stereo not drawn)
- T/C [9]: 56 % of control
- T/C [10]: 46 % of control
- T/C (dose: 100.0 mg/kg/injection, schedule: Q01DX010 (ip), vehicle: saline): 28 % of control

SMILES: C[C@H]1C(=O)O[C@@H]2CCN3CC=C(COC(=O)[C@](C)(O)[C@@]1(C)O)[C@H]23
- T/C (dose: 3.13 mg/kg/injection, schedule: Q01DX010 (ip), vehicle: saline): 74 % of control and 79 % of control
- T/C [7]: 77 % of control
- T/C [8]: 62 % of control and 80 % of control

SMILES: CN(C)c1ccc(/C=C/c2ccnc3ccccc23)cc1
- T/C [14]: 59 % of control
- T/C (dose: 20.0 mg/kg/injection, schedule: Q01DX010 (ip), vehicle: saline): 39 % of control and 46 % of control
- T/C (dose: 40.0 mg/kg/injection, schedule: Q01DX010 (ip), vehicle: saline): 30 % of control and 38 % of control

SMILES: c1ccc(COCC[P+](c2ccccc2)(c2ccccc2)c2ccccc2)cc1
- T/C (dose: 3.0 mg/kg/injection, schedule: Q01DX010 (ip), vehicle: saline): 76 % of control
- T/C [14]: 98 % of control
- T/C [12]: 88 % of control
- T/C (dose: 12.0 mg/kg/injection, schedule: Q01DX010 (ip), vehicle: saline): 33 % of control

SMILES: CN(C)c1nc(N(C)C)nc(N(C)C)n1
- T/C (dose: 18.8 mg/kg/injection, schedule: Q01DX010 (ip), vehicle: saline): 104 % of control and 87 % of control
- T/C (dose: 75.0 mg/kg/injection, schedule: Q01DX010 (ip), vehicle: saline): 68 % of control and 82 % of control
- T/C (dose: 150.0 mg/kg/injection, schedule: Q01DX010 (ip), vehicle: saline): 26 % of control

SMILES: CC1(O)CCC2C3CCC4=CC(=O)CCC4C3CCC21C (stereo not drawn)
- T/C [15]: 83 % of control
- T/C [16]: 81 % of control
- T/C [17]: 80 % of control
- T/C (dose: 1000.0 mg/kg/injection, schedule: Q01DX010 (sc), vehicle: steriod suspending solution): 67 % of control

SMILES: C=C1C[C@H]2[C@@H]3C=C(C)C4=CC(=O)CC[C@]4(C)[C@H]3CC[C@]2(C)[C@@]1(OC(C)=O)C(C)=O
- T/C [2]: 109 % of control and 116 % of control
- T/C [13]: 84 % of control
- T/C [3]: 120 % of control
- T/C (dose: 125.0 mg/kg/injection, schedule: Q01DX001 (sc), vehicle: steriod suspending solution): 87 % of control
- T/C [15]: 124 % of control
- T/C (dose: 125.0 mg/kg/injection, schedule: Q02DX005 (sc), vehicle: steriod suspending solution): 117 % of control
- T/C (dose: 250.0 mg/kg/injection, schedule: Q01DX001 (sc), vehicle: steriod suspending solution): 151 % of control and 160 % of control
- T/C [16]: 76 % of control
- T/C (dose: 250.0 mg/kg/injection, schedule: Q02DX005 (sc), vehicle: steriod suspending solution): 110 % of control
- T/C (dose: 500.0 mg/kg/injection, schedule: Q01DX001 (sc), vehicle: steriod suspending solution): 74 % of control and 80 % of control
- T/C [17]: 85 % of control
- T/C (dose: 500.0 mg/kg/injection, schedule: Q02DX005 (sc), vehicle: steriod suspending solution): 96 % of control
- T/C (dose: 1000.0 mg/kg/injection, schedule: Q01DX001 (sc), vehicle: steriod suspending solution): 100 % of control and 112 % of control
